From patent US7045636B2, “MCH antagonists for the treatment of obesity” (Schering Corporation, priority 2001, dated 2006)

What follows are molecules tested against T1, MCH receptor (Homo sapiens, UniProt Q99705) (assay: MCH Receptor Binding Assay). Conditions: Table 1; membranes from CHO cells expressing the MCH receptor, [125I]-MCH, SPA; read-out: MCH Ki (nm).
T1 construct: expressed in transfected cells; host or cells: CHO cells
T1 sequence (Q99705 whole entry): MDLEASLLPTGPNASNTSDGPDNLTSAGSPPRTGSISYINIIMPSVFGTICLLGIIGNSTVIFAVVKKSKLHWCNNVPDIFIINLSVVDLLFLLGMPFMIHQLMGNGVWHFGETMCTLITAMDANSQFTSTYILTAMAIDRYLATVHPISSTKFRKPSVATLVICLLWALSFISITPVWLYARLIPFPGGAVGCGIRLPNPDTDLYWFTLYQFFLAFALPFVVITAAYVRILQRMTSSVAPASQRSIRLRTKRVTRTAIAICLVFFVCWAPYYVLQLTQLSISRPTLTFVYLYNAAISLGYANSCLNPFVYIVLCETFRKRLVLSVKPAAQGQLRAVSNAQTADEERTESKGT
Procedure: MCH Receptor Binding Assay:
Membranes from CHO cells expressing the MCH receptor were prepared by lysing cells with 5 mM HEPES for 15 min at 4C. Cell lysates were centrifuged ([…], 15 min) and the pellet was re-suspended in 5 mM HEPES. For each 96-well plate (Microlite, Dynex Technologies), 1 mg of cell membranes were incubated with 10 mg of wheat germ agglutinin SPA beads (Amersham) for 5 min at 4 C in a volume of 10 ml of binding buffer (25 mM HEPES, 10 mM MGCl2, 10 mM NaCl, 5 mM MnCl2, 0.1% BSA). The membrane/bead mixture was centrifuged (1500×g, 3.5 min), the supernatant was aspirated, and the pellet was re-suspended in 10 ml binding buffer. The centrifugation, aspiration and re-suspension were then repeated. The membrane/bead mixture (100 μl) was then added to 96-well plates containing 50 μl of 500 pM [^125I]-MCH (NEN) and […] of the appropriate concentration of compound (4× the desired final concentration). Nonspecific binding was determined by including 1 μM MCH in the binding reaction. The binding reaction was incubated at room temperature for 2 h. Plates were then analyzed in a TOPCOUNT microplate scintillation counter (Packard). Data was analyzed and Ki values were determined using GraphPad Prim.
In the case of `N#Cc1cccc(-c2ccc(CCN(CC(=O)Nc3ccc(F)c(Cl)c3)C(=O)CN3CC[C@@H](O)C3)cc2)c1` [Example 3], the Ki is reported as 3.7 nM.
Molecule `N#Cc1cccc(-c2ccc(CCN(CC(=O)Nc3ccc(F)c(Cl)c3)C(=O)CN3CCCC3)cc2)c1` [Example 4] has a Ki of 5.3 nM.
`N#Cc1cccc(-c2ccc(CCN(CC(=O)Nc3cc(F)cc(C(F)(F)F)c3)C(=O)CN3CC[C@@H](O)C3)cc2)c1` [Example 5] showed a Ki of 6.7 nM.
`N#Cc1cccc(-c2ccc(CCN(CC(=O)Nc3cc(Cl)cc(Cl)c3)C(=O)CCN3CC[C@H](O)C3)cc2)c1` [Example 6] gave a Ki of 7.2 nM.
Work on `N#Cc1cccc(-c2ccc(CCN(CC(=O)Nc3cc(Cl)cc(Cl)c3)C(=O)CN3CCCCC3)cc2)c1` [Example 7] yielded a Ki of 9.3 nM.
`N#Cc1cccc(-c2ccc(CCN(CC(=O)Nc3cc(Cl)cc(Cl)c3)C(=O)CCN3CCCC3)cc2)c1` [Example 9] gave a Ki of 10 nM.
In the case of `N#Cc1cccc(-c2ccc(CCN(CC(=O)Nc3ccc(Cl)c(C(F)(F)F)c3)C(=O)CN3CC[C@@H](O)C3)cc2)c1` [Example 10], the Ki is reported as 11 nM.
`N#Cc1cccc(-c2ccc(CCN(CC(=O)Nc3cc(F)cc(C(F)(F)F)c3)C(=O)CN3CCCC3)cc2)c1` [Example 11] gave a Ki of 11.7 nM.
`N#Cc1cccc(-c2ccc(CCN(CC(=O)Nc3cc(Cl)cc(Cl)c3)C(=O)CCN3CC[C@@H](O)C3)cc2)c1` [Example 12] gave a Ki of 12 nM.
`N#Cc1cccc(-c2ccc(CN(CC(=O)Nc3cc(Cl)cc(Cl)c3)C(=O)NCCN3CCCC3)cc2)c1` [Example 13] was tested, and the Ki was 13 nM.
`N#Cc1cccc(-c2ccc(CCN(CC(=O)Nc3cc(Cl)cc(Cl)c3)C(=O)CN3CCCC3)cc2)c1` [Example 15] gave a Ki of 19 nM.
`CCCNCCC(=O)N(CCc1ccc(-c2cccc(C#N)c2)cc1)CC(=O)Nc1cc(Cl)cc(Cl)c1` [Example 16] showed a Ki of 24 nM.
Work on `N#Cc1cccc(-c2ccc(CCN(CC(=O)Nc3ccc(Cl)c(C(F)(F)F)c3)C(=O)CN3CCCC3)cc2)c1` [Example 17] yielded a Ki of 25 nM.
`N#Cc1cccc(-c2ccc(CN(CC(=O)Nc3cc(Cl)cc(Cl)c3)C(=O)CN3CC[C@H](O)C3)cc2)c1` [Example 18] was tested, and the Ki was 27 nM.
In the case of `N#Cc1cccc(-c2ccc(CCN(CC(=O)Nc3ccc(F)c(C(F)(F)F)c3)C(=O)CN3CCCC3)cc2)c1` [Example 19], the Ki is reported as 28 nM.
`N#Cc1cccc(-c2ccc(CCN(CC(=O)Nc3cc(Cl)cc(Cl)c3)C(=O)CCN3CCC3)cc2)c1` [Example 20] showed a Ki of 32 nM.
`N#Cc1cccc(-c2ccc(CN(CC(=O)Nc3cc(Cl)cc(Cl)c3)C(=O)CN3CCCC3)cc2)c1` [Example 21] gave a Ki of 35 nM.
Molecule `CN(C)CC(=O)N(CC(=O)Nc1cc(Cl)cc(Cl)c1)Cc1ccc(-c2cccc(C#N)c2)cc1` [Example 22] has a Ki of 36 nM.
`N#Cc1cccc(-c2ccc(CN(CC(=O)Nc3cc(Cl)cc(Cl)c3)C(=O)C3CN(C4CCCC4)C3)cc2)c1` [Example 24] gave a Ki of 40 nM.
`CN(C)CC(=O)N(CC(=O)Nc1cc(Cl)cc(Cl)c1)c1ccc(-c2cccc(C#N)c2)cc1` [Example 25] gave a Ki of 52 nM.
Molecule `CC(C(=O)Nc1cc(Cl)cc(Cl)c1)N(Cc1ccc(-c2cccc(C#N)c2)cc1)C(=O)CCN1CC[C@H](O)C1` (stereo partly drawn) [Example 26] has a Ki of 56 nM.
`N#Cc1cccc(-c2ccc(CN(CC(=O)Nc3cc(Cl)cc(Cl)c3)C(=O)CN3CC[C@@H](O)C3)cc2)c1` [Example 27] showed a Ki of 61 nM.
Work on `CN1CCN(CC(=O)N(CCc2ccc(-c3cccc(C#N)c3)cc2)CC(=O)Nc2cc(Cl)cc(Cl)c2)CC1` [Example 28] yielded a Ki of 63 nM.
Work on `N#Cc1cccc(-c2ccc(CN(CC(=O)Nc3ccc(F)c(C(F)(F)F)c3)C(=O)CN3CCCC3)cc2)c1` [Example 29] yielded a Ki of 72 nM.
In the case of `CC(C(=O)Nc1cc(Cl)cc(Cl)c1)N(Cc1ccc(-c2cccc(C#N)c2)cc1)C(=O)CCN1CCCC1` (stereo not drawn) [Example 30], the Ki is reported as 73 nM.
`CC(=O)N[C@@H]1CCN(CC(=O)N(CCc2ccc(-c3cccc(C#N)c3)cc2)CC(=O)Nc2cc(Cl)cc(Cl)c2)C1` [Example 31] showed a Ki of 82 nM.
`CN(C)CC(=O)N(CCc1ccc(-c2cccc(C#N)c2)cc1)CC(=O)Nc1cc(Cl)cc(Cl)c1` [Example 32] gave a Ki of 90 nM.
Molecule `CC(C(=O)Nc1cc(Cl)cc(Cl)c1)N(CCc1ccc(-c2cccc(C#N)c2)cc1)C(=O)CN1CC[C@H](O)C1` (stereo partly drawn) [Example 36] has a Ki of 8 nM.
In the case of `CC(C(=O)Nc1cc(Cl)cc(Cl)c1)N(CCc1ccc(-c2cccc(C#N)c2)cc1)C(=O)CN1CCCCC1` (stereo not drawn) [Example 37], the Ki is reported as 9 nM.

Same assay, conditions: Table 2; membranes from CHO cells expressing the MCH receptor, [125I]-MCH, SPA; read-out: Ki (MCH)
For `CC(c1ccc(-c2cccc(C#N)c2)cc1)N(CC(=O)Nc1cc(Cl)cc(Cl)c1)C(=O)CCN1CC[C@@H](O)C1` (stereo partly drawn) [Example 41], the Ki was 12 nM.
In the case of `CC(c1ccc(-c2cccc(C#N)c2)cc1)N(CC(=O)Nc1cc(Cl)cc(Cl)c1)C(=O)CN1CC[C@H](O)C1` (stereo partly drawn) [Example 42], the Ki is reported as 16 nM.
`C[C@@H](c1ccc(-c2cccc(C#N)c2)cc1)N(CC(=O)Nc1cc(Cl)cc(Cl)c1)C(=O)CCN1CC[C@@H](O)C1` [Example 43] showed a Ki of 18 nM.
With `C[C@@H](c1ccc(-c2cccc(C#N)c2)cc1)N(CC(=O)Nc1cc(Cl)cc(Cl)c1)C(=O)CCN1CCCCC1` [Example 44] the Ki was 18 nM.
For `CCCNCCC(=O)N(CC(=O)Nc1cc(Cl)cc(Cl)c1)[C@@H](C)c1ccc(-c2cccc(C#N)c2)cc1` [Example 45], the Ki was 22 nM.
Molecule `C[C@@H](c1ccc(-c2cccc(C#N)c2)cc1)N(CC(=O)Nc1cc(Cl)cc(Cl)c1)C(=O)CCNCC1CC1` [Example 46] has a Ki of 22 nM.
`C[C@H](c1ccc(-c2cccc(C#N)c2)cc1)N(CC(=O)Nc1cc(Cl)cc(Cl)c1)C(=O)CCN1CC[C@@H](O)C1` [Example 47] showed a Ki of 23 nM.
`C[C@@H](c1ccc(-c2cccc(C#N)c2)cc1)N(CC(=O)Nc1cc(Cl)cc(Cl)c1)C(=O)CCNC1CCC1` [Example 48] was tested, and the Ki was 28 nM.
For `C[C@H](c1ccc(-c2cccc(C#N)c2)cc1)N(CC(=O)Nc1cc(Cl)cc(Cl)c1)C(=O)CN1CC[C@@H](O)C1` [Example 49], the Ki was 31 nM.
`CC(C)CNCCC(=O)N(CC(=O)Nc1cc(Cl)cc(Cl)c1)[C@@H](C)c1ccc(-c2cccc(C#N)c2)cc1` [Example 50] showed a Ki of 34 nM.
With `C[C@@H](c1ccc(-c2cccc(C#N)c2)cc1)N(CC(=O)Nc1cc(Cl)cc(Cl)c1)C(=O)CCN(C)C` [Example 51] the Ki was 45 nM.
`C[C@@H](c1ccc(-c2cccc(C#N)c2)cc1)N(CC(=O)Nc1cc(Cl)cc(Cl)c1)C(=O)CCNC1CCCC1` [Example 52] was tested, and the Ki was 67 nM.
For `CNCCC(=O)N(CC(=O)Nc1cc(Cl)cc(Cl)c1)[C@@H](C)c1ccc(-c2cccc(C#N)c2)cc1` [Example 53], the Ki was 78 nM.

Same assay, conditions: printed unit nM; read-out: MCH Ki
`N#Cc1cccc(-c2ccc(CC(=O)N(CCCN3CCCC3)CC(=O)Nc3cc(Cl)cc(Cl)c3)cc2)c1` [Example 61] gave a Ki of 62 nM.

Same assay, conditions: text of the example; printed unit nm; read-out: MCH Ki
With `N#Cc1cccc(-c2ccc(CN(CC(=O)Nc3cc(Cl)cc(Cl)c3)C(=O)CCN3CCCC3)cc2)c1` [Example 1] the Ki was 21 nM.
With `CC(c1ccc(-c2cccc(C#N)c2)cc1)N(CC(=O)Nc1cc(Cl)cc(Cl)c1)C(=O)CN1CCCC1` (stereo not drawn) [Example 40] the Ki was 21 nM.
